Measured values: PMC8122671, “New Succinimides with Potent Anticancer Activity: Synthesis, Activation of Stress Signaling Pathways and Characterization of Apoptosis in Leukemia and Cervical Cancer Cells” (International Journal of Molecular Sciences, 2021)
Where two headings read alike, the source gives them in different places.

Legend:
[1] = Lipophilicity (logkw) by reversed-phase chromatography (RP-HPLC); type: physicochemical; conditions: for logkw (Experimental): extrapolated to pure water; for logkw (Table S2): intercept of logk vs methanol fraction, n = 4
Description: The main goal of the synthetic part was the synthesis of new derivatives of dicarboximides with decreased lipophilicity in comparison to the lead compounds, i.e., Ia–Ie and II. To reduce the lipophilicity of the new dicarboximides, a hydroxyalkyl chain connected with an aliphatic amine was introduced to the imides (Scheme 1). At the same time, the imide scaffold in derivatives from group 2 and 3 was the same as in lead compounds Ia–Ie and II, respectively (Figure 1). The structure of the imide was changed in derivatives 1b–1g. The lipophilicity of new derivatives was calculated using the Osiris Property Explorer program. For some compounds, lipophilicity was determined experimentally by a reversed-phase chromatography (detailed description is given in Materials and Methods and in the Supplementary Data, Table S2). Table 1 summarizes the calculated (clogP) and experimental (logkw) parameters of the lipophilicity of new derivatives.
The reversed-phase high-performance liquid chromatography (RP-HPLC) analysis was performed on a Merck–Hitachi LaChrom Elite System (Merck, Darmstadt, Germany) with diode array detector L-2455, thermostat L-2300, pump L-2130, and autosampler L-2200 and with the Waters XTerra MS RP-18 (3.5 μm, 150 × 4.6 mm) chromatographic column (Waters, Milford, MA, USA) as the stationary phase. The mobile phase consisted of methanol, water, and 0.1% (v/v) formic acid and was degassed by the use of the built-in membrane degasser. The methanol gradient grade for HPLC was purchased from Merck (Merck, Darmstadt, Germany) and formic acid from Polish Reagents (Polish Reagents, Gliwice, Poland); double-distilled water was used. Then, 5 μL of methanolic solutions (0.1%; m/v) of selected samples were applied to the chromatographic column by the use of an autosampler Hitachi L-2200 (LaChrom Elite, Hitachi-Merck, Darmstadt, Germany). The analysis was performed with the flow rate of 0.7 mL min^−1 in isocratic mode using various concentrations of organic modifier (methanol) in binary polar mobile phases; percentages of methanol in water were 45–70% (%, v/v) and changed by 5% per step. Chromatograms were detected at 254 nm and the temperature of the column was 25 °C. All experiments were repeated in triplicate, and the final results were taken to be the arithmetic means. Dead time was measured by the use of uracil (Calbiochem. Merck, Darmstadt, Germany). Statistical and regression analyses were performed using Statistica (ver. 13.3 for Windows). The chromatographic lipophilicity parameters ( logkW ) for selected samples were obtained by the extrapolation of the retention parameter logk to pure water, according to Equation (1):(1) logk=logkw−S·ϕ; where logkW is the value of the retention factor of a substance in pure water, S is the slope of the regression curve, and ϕ is the concentration of the organic modifier. The values of logk were calculated based on the raw HPLC data using the formula (2):(2) logk=logtR−t0/t0; where tR is the retention time and t0 is the dead retention time (determined for uracil).
The chromatographic lipophilicity parameters (logkௐ ) for selected samples were ob‐ tained by the extrapolation of the retention parame te r logk to pure water, according to […]
where logkௐ is the value of the retention factor of a substance in pure water, S is the slope of the regression curve, and φ is the concentration of the organic modifier. The values of logk were ca lcula ted based on the raw HPLC data using the formula: […]
logk ൌ log ሺ௧ೃ ି ௧బ௧బ ሻ (2) where tோ is the retention time and t଴ is the dead retention time (determined for ura‐ cil). The goodness of fit of the equation (1) to the experimental data was classified accord‐ ing to Jaffe (Jaffe, H. H. A Reexamination of the Hammet Equation. Chem. Rev. 1953, 53, In our RP‐HPLC experiments, the goodness of fit of the equation to the experi‐ mental data are excellent in most ca ses (r > 0.99). The F statistic val ues are, in all cases, […]

[2] = system: K562 (myelogenous leukemia cell line); assay: MTT cytotoxicity assay, K562; type: cell-based, human; conditions: 48 h incubation, average (SD) of three experiments, read-out: IC50 K562
[3] = system: HUVEC (normal endothelial) cells; assay: MTT cytotoxicity assay, HUVEC; type: cell-based; conditions: Homo sapiens, 48 h incubation, average (SD) of three experiments, read-out: IC50 HUVEC

Row | logkw (Experimental) [1] | logkw (Table S2) [1] | SMILES | IC50 [2] | IC50 ([2]; Homo sapiens, K562, 48 h) | IC50 [3]
1 | 6.28 | 6.2845 | CCN(CC)CC(O)CN1C(=O)C2C(C1=O)C1(c3ccccc3)CC2(c2ccccc2)C(c2ccccc2)=C1c1ccccc1 (stereo not drawn) [3d, 4-[3-(diethylamino)-2-hydroxypropyl]-1,7,8,9-tetraphenyl-4-azatricyclo[5.2.1.0^2,6]dec-8-ene-3,5-dione] | 3.2 µM | < 6 µM | 0.3 µM
2 | 6.06 | 6.0611 | CC(C)(C)NCC(O)CN1C(=O)C2C(C1=O)C1(c3ccccc3)CC2(c2ccccc2)C(c2ccccc2)=C1c1ccccc1 (stereo not drawn) [3c, 4-[3-(tert-butylamino)-2-hydroxypropyl]-1,7,8,9-tetraphenyl-4-azatricyclo[5.2.1.0^2,6]dec-8-ene-3,5-dione] | – | – | 0.4 µM
3 | 5.10 | 5.1042 | CCN(CC)CC(O)CN1C(=O)C2C(C1=O)C1(CC)C(=O)C2(CC)C(c2ccccc2)=C1c1ccccc1 (stereo not drawn) [2d, 4-[3-(diethylamino)-2-hydroxypropyl]-1,7-diethyl-8,9-diphenyl-4-azatricyclo [5.2.1.0^2,6]dec-8-ene-3,5,10-trione] | 5.8 µM | < 6 µM | 3.6 µM
4 | 4.74 | 4.7442 | CCC12C(=O)C(CC)(C(c3ccccc3)=C1c1ccccc1)C1C(=O)N(CC(O)CNC(C)(C)C)C(=O)C12 (stereo not drawn) [2c, 4-[3-(tert-butylamino)-2-hydroxypropyl]-1,7-diethyl-8,9-diphenyl-4-azatricyclo [5.2.1.0^2,6]dec-8-ene-3,5,10-trione] | 4 µM | < 6 µM | 3.3 µM
